According to PubChem BioAssay AID1963969 (Molecular Pharmacology Branch, DTP, NCI, 2024):
One block for each compound: values may come before it.

System: 817829-284-R-J1-PDC multi-cell spheroid viability
Test: Anticancer human tumor 817829-284-R-J1-PDC patient-derived colon adenocarcinoma cell line growth inhibition [PI3K]
Settings: for IC50: curve of first compound; for viability, T/C: stronger effect = lower value
Procedure, shortened: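 Multi-cell spheroids combine tumor cells with HUVEC and human MSCs, treated with targeted agents alone or with inavolisib, alpelisib, duvelisib or copanlisib. Concentrations fall in half-log steps from at or near clinical Cmax, or from 10 microM where Cmax is unknown; viability read-out.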

[1] = second compound 0.00316 µM, first compound 0.0316 µM
[2] = second compound 0.00316 µM, first compound 0.1 µM
[3] = second compound 0.00316 µM, first compound 0.316 µM
[4] = second compound 0.00316 µM, first compound 1 µM
[5] = second compound 0.00316 µM, first compound 3.16 µM
[6] = second compound 0.00316 µM, first compound 10 µM
[7] = second compound 0.01 µM, first compound 0.0316 µM
[8] = second compound 0.01 µM, first compound 0.1 µM
[9] = second compound 0.01 µM, first compound 0.316 µM
[10] = second compound 0.01 µM, first compound 1 µM
[11] = second compound 0.01 µM, first compound 3.16 µM
[12] = second compound 0.01 µM, first compound 10 µM
[13] = second compound 0.0316 µM, first compound 0.0316 µM
[14] = second compound 0.0316 µM, first compound 0.1 µM
[15] = second compound 0.0316 µM, first compound 0.316 µM
[16] = second compound 0.0316 µM, first compound 1 µM
[17] = second compound 0.0316 µM, first compound 3.16 µM
[18] = second compound 0.0316 µM, first compound 10 µM
[19] = second compound 0.1 µM, first compound 0.0316 µM
[20] = second compound 0.1 µM, first compound 0.1 µM
[21] = second compound 0.1 µM, first compound 0.316 µM
[22] = second compound 0.1 µM, first compound 1 µM
[23] = second compound 0.1 µM, first compound 3.16 µM
[24] = second compound 0.1 µM, first compound 10 µM
[25] = second compound 0.316 µM, first compound 0.0316 µM
[26] = second compound 0.316 µM, first compound 0.1 µM
[27] = second compound 0.316 µM, first compound 0.316 µM
[28] = second compound 0.316 µM, first compound 1 µM
[29] = second compound 0.316 µM, first compound 3.16 µM
[30] = second compound 0.316 µM, first compound 10 µM
[31] = second compound 1 µM, first compound 0.0316 µM
[32] = second compound 1 µM, first compound 0.1 µM
[33] = second compound 1 µM, first compound 0.316 µM
[34] = second compound 1 µM, first compound 1 µM
[35] = second compound 1 µM, first compound 3.16 µM
[36] = second compound 1 µM, first compound 10 µM
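Also: spheroids exposed to agents for seven days before readout.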
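For viability, T/C in this document: percent of vehicle DMSO control viability which is 100%.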

- IC50 (second compound 0.00316 µM): > 10000 nM
- IC50 (second compound 0.01 µM): > 10000 nM
- IC50 (second compound 0.0316 µM): 7450 nM
- IC50 (second compound 0.1 µM): < 31.6 nM
- IC50 (second compound 0.316 µM): < 31.6 nM
- IC50 (second compound 1 µM): < 31.6 nM
Compound: C#Cc1c(F)ccc2cc(O)cc(-c3ncc4c(N5CC6CCC(C5)N6)nc(OCC56CCCN5CC(F)C6)nc4c3F)c12 (stereo not drawn) + COc1c(OCCCN2CCOCC2)ccc2c3n(c(=NC(=O)c4cnc(N)nc4)nc12)CCN3
- viability, T/C [1]: 64.9%
- viability, T/C [2]: 82.5%
- viability, T/C [3]: 83.7%
- viability, T/C [4]: 71.8%
- viability, T/C [5]: 77%
- viability, T/C [6]: 70.2%
- viability, T/C [7]: 86.2%
- viability, T/C [8]: 84%
- viability, T/C [9]: 62.9%
- viability, T/C [10]: 61.8%
- viability, T/C [11]: 69.6%
- viability, T/C [12]: 51.1%
- viability, T/C [13]: 73.8%
- viability, T/C [14]: 41.5%
- viability, T/C [15]: 53.7%
- viability, T/C [16]: 50.4%
- viability, T/C [17]: 74.8%
- viability, T/C [18]: 37.2%
- viability, T/C [19]: 28.6%
- viability, T/C [20]: 40.5%
- viability, T/C [21]: 37.6%
- viability, T/C [22]: 21.4%
- viability, T/C [23]: 37.8%
- viability, T/C [24]: 30.8%
- viability, T/C [25]: 17.4%
- viability, T/C [26]: 26.3%
- viability, T/C [27]: 22.2%
- viability, T/C [28]: 14.9%
- viability, T/C [29]: 18%
- viability, T/C [30]: 12.4%
- viability, T/C [31]: 8.66%
- viability, T/C [32]: 9.22%
- viability, T/C [33]: 8.61%
- viability, T/C [34]: 8.24%
- viability, T/C [35]: 5.56%
- viability, T/C [36]: 6.03%

- IC50 (second compound 0.00316 µM): > 10000 nM
- IC50 (second compound 0.01 µM): 6450 nM
- IC50 (second compound 0.0316 µM): 5820 nM
- IC50 (second compound 0.1 µM): < 31.6 nM
- IC50 (second compound 0.316 µM): < 31.6 nM
- IC50 (second compound 1 µM): < 31.6 nM
Compound: CC(Cn1ccc(-c2ccc(C#N)c(Cl)c2)n1)NC(=O)c1cc(C(C)O)[nH]n1 (stereo not drawn) + COc1c(OCCCN2CCOCC2)ccc2c3n(c(=NC(=O)c4cnc(N)nc4)nc12)CCN3
- viability, T/C [1]: 70.6%
- viability, T/C [2]: 101%
- viability, T/C [3]: 101%
- viability, T/C [4]: 97.5%
- viability, T/C [5]: 64.5%
- viability, T/C [6]: 73.9%
- viability, T/C [7]: 59.5%
- viability, T/C [8]: 87.1%
- viability, T/C [9]: 98.8%
- viability, T/C [10]: 57.1%
- viability, T/C [11]: 71.1%
- viability, T/C [12]: 39.4%
- viability, T/C [13]: 50.8%
- viability, T/C [14]: 61.7%
- viability, T/C [15]: 61.4%
- viability, T/C [16]: 67.5%
- viability, T/C [17]: 54.6%
- viability, T/C [18]: 36.4%
- viability, T/C [19]: 48.2%
- viability, T/C [20]: 30.8%
- viability, T/C [21]: 30.2%
- viability, T/C [22]: 38.1%
- viability, T/C [23]: 33.2%
- viability, T/C [24]: 26.8%
- viability, T/C [25]: 20.2%
- viability, T/C [26]: 21.3%
- viability, T/C [27]: 23.6%
- viability, T/C [28]: 20.5%
- viability, T/C [29]: 24.4%
- viability, T/C [30]: 20.8%
- viability, T/C [31]: 12.9%
- viability, T/C [32]: 7.86%
- viability, T/C [33]: 10.6%
- viability, T/C [34]: 9.64%
- viability, T/C [35]: 9.96%
- viability, T/C [36]: 10.4%

- IC50 (second compound 0.00316 µM): 73 nM
- IC50 (second compound 0.01 µM): 79.9 nM
- IC50 (second compound 0.0316 µM): 45.2 nM
- IC50 (second compound 0.1 µM): < 31.6 nM
- IC50 (second compound 0.316 µM): < 31.6 nM
- IC50 (second compound 1 µM): < 31.6 nM
Compound: Cn1ncc(Cl)c1-c1cc(C(=O)NC(CN)Cc2cccc(F)c2)sc1Cl (stereo not drawn) + COc1c(OCCCN2CCOCC2)ccc2c3n(c(=NC(=O)c4cnc(N)nc4)nc12)CCN3
- viability, T/C [1]: 105%
- viability, T/C [2]: 29.4%
- viability, T/C [3]: 21.1%
- viability, T/C [4]: 20.9%
- viability, T/C [5]: 18.1%
- viability, T/C [6]: 15.5%
- viability, T/C [7]: 69.6%
- viability, T/C [8]: 46.2%
- viability, T/C [9]: 25.6%
- viability, T/C [10]: 25.9%
- viability, T/C [11]: 18.3%
- viability, T/C [12]: 10.8%
- viability, T/C [13]: 59%
- viability, T/C [14]: 31.2%
- viability, T/C [15]: 16.8%
- viability, T/C [16]: 20.9%
- viability, T/C [17]: 15.8%
- viability, T/C [18]: 10.5%
- viability, T/C [19]: 25.4%
- viability, T/C [20]: 25.4%
- viability, T/C [21]: 21.2%
- viability, T/C [22]: 15.2%
- viability, T/C [23]: 13.9%
- viability, T/C [24]: 10.3%
- viability, T/C [25]: 20.2%
- viability, T/C [26]: 23.4%
- viability, T/C [27]: 15.2%
- viability, T/C [28]: 12.2%
- viability, T/C [29]: 11.1%
- viability, T/C [30]: 8.71%
- viability, T/C [31]: 9.57%
- viability, T/C [32]: 11.1%
- viability, T/C [33]: 8.51%
- viability, T/C [34]: 9.47%
- viability, T/C [35]: 7.2%
- viability, T/C [36]: 8.41%

- IC50 (second compound 0.0316 µM): 289 nM
- IC50 (second compound 0.1 µM): 319 nM
- IC50 (second compound 0.316 µM): 160 nM
- IC50 (second compound 1 µM): 135 nM
- IC50 (second compound 3.16 µM): 574 nM
- IC50 (second compound 10 µM): 293 nM
Compound: Cn1cnc2c(F)c(Nc3ccc(Br)cc3Cl)c(C(=O)NOCCO)cc21 + Cc1nc(NC(=O)N2CCCC2C(N)=O)sc1-c1ccnc(C(C)(C)C(F)(F)F)c1
- viability, T/C (second compound 0.0316 µM, first compound 0.00949 µM): 96.6%
- viability, T/C (second compound 0.0316 µM, first compound 0.03 µM): 63%
- viability, T/C (second compound 0.0316 µM, first compound 0.0949 µM): 67.3%
- viability, T/C (second compound 0.0316 µM, first compound 0.3 µM): 44.5%
- viability, T/C (second compound 0.0316 µM, first compound 0.949 µM): 50.2%
- viability, T/C (second compound 0.0316 µM, first compound 3 µM): 22.4%
- viability, T/C (second compound 0.1 µM, first compound 0.00949 µM): 80.8%
- viability, T/C (second compound 0.1 µM, first compound 0.03 µM): 62.1%
- viability, T/C (second compound 0.1 µM, first compound 0.0949 µM): 59.7%
- viability, T/C (second compound 0.1 µM, first compound 0.3 µM): 46.8%
- viability, T/C (second compound 0.1 µM, first compound 0.949 µM): 49.6%
- viability, T/C (second compound 0.1 µM, first compound 3 µM): 31.2%
- viability, T/C (second compound 0.316 µM, first compound 0.00949 µM): 82.2%
- viability, T/C (second compound 0.316 µM, first compound 0.03 µM): 60.4%
- viability, T/C (second compound 0.316 µM, first compound 0.0949 µM): 62.8%
- viability, T/C (second compound 0.316 µM, first compound 0.3 µM): 39.6%
- viability, T/C (second compound 0.316 µM, first compound 0.949 µM): 35.3%
- viability, T/C (second compound 0.316 µM, first compound 3 µM): 22.8%
- viability, T/C (second compound 1 µM, first compound 0.00949 µM): 67.7%
- viability, T/C (second compound 1 µM, first compound 0.03 µM): 44.9%
- viability, T/C (second compound 1 µM, first compound 0.0949 µM): 48.2%
- viability, T/C (second compound 1 µM, first compound 0.3 µM): 62%
- viability, T/C (second compound 1 µM, first compound 0.949 µM): 27.3%
- viability, T/C (second compound 1 µM, first compound 3 µM): 29.4%
- viability, T/C (second compound 3.16 µM, first compound 0.00949 µM): 118%
- viability, T/C (second compound 3.16 µM, first compound 0.03 µM): 88.8%
- viability, T/C (second compound 3.16 µM, first compound 0.0949 µM): 74.1%
- viability, T/C (second compound 3.16 µM, first compound 0.3 µM): 70.2%
- viability, T/C (second compound 3.16 µM, first compound 0.949 µM): 38.8%
- viability, T/C (second compound 3.16 µM, first compound 3 µM): 24.4%
- viability, T/C (second compound 10 µM, first compound 0.00949 µM): 74.8%
- viability, T/C (second compound 10 µM, first compound 0.03 µM): 70%
- viability, T/C (second compound 10 µM, first compound 0.0949 µM): 62.4%
- viability, T/C (second compound 10 µM, first compound 0.3 µM): 50.4%
- viability, T/C (second compound 10 µM, first compound 0.949 µM): 31.1%
- viability, T/C (second compound 10 µM, first compound 3 µM): 11.5%
